In patent US10287530B2, “Surfactants based on monounsaturated fatty alcohol derivatives” (priority 2013, dated 2019):
Where two headings read alike, the source gives them in different places.

Key:
[1] = Agricultural dispersant screening: sedimentation of milled pesticide powder; assay type: physicochemical; parameters: key to Sedimentation results at 1 h: Trace of sediment=“Tr”; conditions: for Rating: overall, versus DF-200 and DF-500 controls
Description: The potential of a composition for use as an agricultural dispersant is evaluated by its performance with five typical pesticide active ingredients: atrazine, chlorothalonil, diuron, imidacloprid and tebuconazole. The performance of each dispersant sample is evaluated in comparison with two standard Stepsperse® dispersants: DF-200 and DF-500 (products of Stepan Company).
A screening sample is prepared as shown below for each active. Wetting agents, clays, and various additives are included or excluded from the screening process as needed. The weight percent of pesticide (“technical material”) in the formulation depends on the desired active level of the final product. The active level chosen is similar to other products on the market. If this is a new active ingredient, then the highest active level is used.
Samples are evaluated in waters of varying hardness, in this case 342 ppm and 1000 ppm. The initial evaluations are performed at ambient temperature. Other temperatures can be evaluated as desired. The 342 ppm water is made by dissolving anhydrous calcium chloride (0.304 g) and magnesium chloride hexahydrate (0.139 g) in deionized water and diluting to 1 L. The 1000 ppm water is made similarly using 0.89 g of calcium chloride and 0.40 g of magnesium chloride hexahydrate.
Technical material (60-92.5 wt. %), anionic wetting agent (0.5-1.0 wt. %), silica (0.5-1.0 wt. %), and clay (balance) are blended in a suitable container. The blend is milled to a particle size of at least a d(90) of <20μ using a hammer and air/jet mills as needed. Test dispersant (0.1 g) is added to test water (50 mL) in a beaker and stirred 1-2 min. Milled powder containing the technical material (1.0 g) is added to the dispersant solution and stirred until all powder is wet (2-5 min.). The mixture is transferred to a 100-mL cylinder using additional test water for rinsing the beaker and is then diluted to volume. The cylinder is stoppered and inverted ten times, then allowed to stand. Visual inspection is performed at t=0.5, 1.0, 2.0, and 24 hours, and the amount of sediment observed (in mL) is recorded. Trace of sediment=“Tr” (see Table 5).

[2] = Surfactant phase behavior study by cross-polarized microscopy; assay type: physicochemical; conditions: in deionized water, room temperature (20-22° C.); boundaries are estimates (±5%)
Description: Phase behavior is observed using an Olympus BH-2 cross-polarized microscope at 100-400× and room temperature (20° C. to 22° C.). The monounsaturated C11 alcohol derivatives (sulfates, ethoxylate sulfates, and alcohol ethoxylates) are compared with their saturated analogs. Samples are prepared by diluting the most concentrated product gradually with deionized water. When the surfactant concentration approaches a phase transition, the concentration is varied at 2-4% intervals to estimate the phase boundary. The actives level reported in Table 6 for each phase boundary is within ±5% of the true boundary. Samples are loaded between a microscope slide and cover glass and are allowed to equilibrate before observation. Microscopic texture is analyzed and used to determine the phase. For some samples, an AR 2000 rheometer (TA Instruments) is used to measure viscosity at 25° C. to further verify phase behavior.

[3] = assay type: physicochemical; conditions: for Emulsion stability, mL separation, 1 h / Emulsion stability, mL separation, 24 h: 342 ppm water; for Rating: overall, versus control
Description: Surfactant candidates for water soluble herbicide applications are examined as a replacement for the anionic, nonionic, or anionic/nonionic blend portion and compared to a known industry adjuvant standard for use in paraquat, a water soluble herbicide concentrate formulation. A standard dilution test is conducted whereby the concentrates are diluted in water to determine if solubility is complete.
A known industry paraquat adjuvant (2.8 g) is added and vigorously mixed for 30 s. Deionized water (8.07 g) is added, and mixing resumes for 30 s. […] The cylinder is stoppered and inverted ten times. Solubility is recorded as complete or incomplete. Cylinders are allowed to stand and the amount (in mL) and type of separation are recorded after 30 min., 1 h, 2 h, and 24 h. Results of the solubility testing appear in Table 4 below.
An eight to ten mole alkyl phenol ethoxylate surfactant (0.7 g) is added and vigorously mixed for 30 s. Test sample (0.7 g) is added and mixing resumes for 30 s. Deionized water (4.03 g) is added, and mixing resumes for 30 s.
Test sample (0.7 g) is added and vigorously mixed for 30 s. Sodium linear alkylbenzene sulfonate (“NaLAS,” 0.7 g) is added and mixing resumes for 30 s. Deionized water (4.03 g) is added, and mixing resumes for 30 s.
Test sample (1.4 g) is added and vigorously mixed for 30 s. Deionized water (4.03 g) is added, and mixing resumes for 30 s.

[4] = Appearance and solubility of surfactants and of 1:1 molar blends with cationic surfactant; assay type: physicochemical; conditions: for Appearance, 1.0%: 1:1 molar blend of the anionic with Ammonyx Cetac 30, 1.0% actives
Description: The surfactant blends tested are prepared at a 1:1 molar ratio without any pH adjustment. Dilutions are made using deionized water to the desired actives level. Actives amounts are wt. % unless indicated otherwise. Appearances are reported at ambient temperature for samples prepared within the last 24 h.

[5] = Chlorothalonil, test water 342 ppm
[6] = Chlorothalonil, test water 1000 ppm
[7] = Imidacloprid, test water 342 ppm
[8] = Imidacloprid, test water 1000 ppm
[9] = Tebuconazole, test water 342 ppm
[10] = Tebuconazole, test water 1000 ppm
[11] = Adjuvant (anionic/nonionic) test sample

| Substance | Sedimentation results at 1 h ([1]; Atrazine, test water 342 ppm) | Sedimentation results at 24 h ([1]; Atrazine, test water 342 ppm) [mL] | Sedimentation results at 1 h ([1]; Atrazine, test water 1000 ppm) [mL] | Sedimentation results at 24 h ([1]; Atrazine, test water 1000 ppm) [mL] | Sedimentation results at 1 h [1, 5] | Sedimentation results at 24 h [1, 5] [mL] | Sedimentation results at 1 h [1, 6] [mL] | Sedimentation results at 24 h [1, 6] [mL] | Sedimentation results at 1 h ([1]; Diuron, test water 342 ppm) [mL] | Sedimentation results at 24 h ([1]; Diuron, test water 342 ppm) [mL] | Sedimentation results at 1 h ([1]; Diuron, test water 1000 ppm) [mL] | Sedimentation results at 24 h ([1]; Diuron, test water 1000 ppm) [mL] | Sedimentation results at 1 h [1, 7] [mL] | Sedimentation results at 24 h [1, 7] [mL] | Sedimentation results at 1 h [1, 8] | Sedimentation results at 24 h [1, 8] | Sedimentation results at 1 h [1, 9] | Sedimentation results at 24 h [1, 9] [mL] | Rating [1] | Estimated Phase Region as a Function of % Actives Level: Isotropic Clear [2] | other results |
| --- | --- | --- | --- | --- | --- | --- | --- | --- | --- | --- | --- | --- | --- | --- | --- | --- | --- | --- | --- | --- | --- |
| Undecylenic Alcohol, 1EO Ether Sulfate, Sodium Salt [Unsat. C11 alcohol 1EO Na sulfate] | Tr | 1 | 0.5 | 1 | Tr | 1 | 0.5 | 1 | 0.5 | 1 | 1 | 2 | 3 | 4 | 3, 3 mL | 3, 3 mL | Tr | 2 | equal | 0-64 % actives | Sedimentation observation (flock) [1, 10]: flocked; Estimated Phase Region as a Function of % Actives Level: Solid/gum/paste [2]: 74-100 % actives; Estimated Phase Region as a Function of % Actives Level: Solid/isotropic [2]: 64-74 % actives; Emulsion stability, mL separation, 1 h [3, 11]: 0 mL; Emulsion stability, mL separation, 24 h [3, 11]: 0.5 mL; Emulsion stability, mL separation, 1 h ([3]; Anionic test sample): 0 mL; Emulsion stability, mL separation, 24 h ([3]; Anionic test sample): 0 mL; Emulsion stability, mL separation, 1 h ([3]; Nonionic test sample): 0.2 mL; Emulsion stability, mL separation, 24 h ([3]; Nonionic test sample): 0.25 mL; Rating [3]: good; Solubility [4]: good; Appearance, 1.0% ([4]; ambient temperature): separated |
| 1-Undecanol, 1EO Ether Sulfate, Sodium Salt [Sat. C11 alcohol 1EO Na sulfate] | Tr | 1 | 0.5 | 1 | 0.5 mL | 1 | 0.5 | 2 | 0.5 | 1 | 1 | 2 | 1 | 2 | 2.5 mL | 2 mL | Tr | 0.5 | equal | 0-36 % actives | Sedimentation results at 1 h [1, 10]: 5 mL; Sedimentation results at 24 h [1, 10]: 3 mL; Estimated Phase Region as a Function of % Actives Level: Hexagonal [2]: 36-58 % actives; Estimated Phase Region as a Function of % Actives Level: Lamellar [2]: 58-72 % actives; Estimated Phase Region as a Function of % Actives Level: Solid/gum/paste [2]: 72-100 % actives; Emulsion stability, mL separation, 1 h [3, 11]: 0 mL; Emulsion stability, mL separation, 24 h [3, 11]: 0.2 mL; Emulsion stability, mL separation, 1 h ([3]; Anionic test sample): 0 mL; Emulsion stability, mL separation, 24 h ([3]; Anionic test sample): 0 mL; Emulsion stability, mL separation, 1 h ([3]; Nonionic test sample): 0.2 mL; Emulsion stability, mL separation, 24 h ([3]; Nonionic test sample): 0.5 mL; Rating [3]: good; Solubility [4]: fair-poor; Appearance, 0.1% ([4]; 1:1 molar blend of the anionic with Ammonyx Cetac 30, 0.1% actives, ambient temperature): hazy liquid; Appearance, 1.0% ([4]; ambient temperature): separated |
